Source: patent publication US4205952A, “Specific binding assay method and reagent means” (Technion Research & Development Foundation Ltd., priority 1976, dated 1980)

Legend:
Anti-BSA antiserum = assay: Interaction of cobalt-labelled BSA conjugate with anti-BSA antibodies, supernatant Co by AAS; format: binding
Method: (1) Anti-BSA antiserum (100 μl) was added to each of four tubes numbered 1 to 4. The same volume (100 μl) of 0.01 M phosphate buffer was added to each of additional four tubes, numbered 5 to 8.
(2) A fixed volume (100 μl) of four dilutions of BSA-Cobalt labelled conjugate, containing 0.23, 0.47, 0.94 and 1.88 μg Co/ml (or 0.8, 1.6, 3.1 and 6.2 μg BSA conjugate/100 μl of sample) added to the tubes 1 to 4 respectively and similarly to tubes 5 to 8 respectively.
(3) The solutions were mixed on a Vortex, allowed to incubate for 1 hr. at 37° C. and then for 48 hrs. at 4° C.
(4) The tubes were then centrifuged for 30 min. at 4° C.
(5) The supernatant was analyzed for Co by atomic absorption.
The readings obtained from tubes 5 through 8 served as calibrating controls. The readings from tubes 1 through 4 then indicated the amount of free cobalt-labelled BSA left in solution (by difference the "bound" BSA antigen could be determined). The atomic absorption measurements were interpolated into the calibration curve and gave 0.00, 0.06, 0.59 and 1.25 μg Co/ml of "free" hapten, equivalent to a concentration of 0,0.2,2.0 and 4.3 μg BSA conjugate/100 μl of original sample in tubes 1,2,3 and 4 respectively.

[1] = tested on: sepharose-bound anti-E2 (HS)-COOH antibodies; assay: Inhibition and cross-reaction experiments with E2(HS)-CONH-CH2-Fc; format: binding, rabbit
Method: A fixed volume (30 μl) of a solution of iron-labelled estradiol hemisuccinate, E2 (HS)-CONH-CH2 Fc, of suitable concentration (selected from the results obtained in Step (ii) above) was mixed with a constant volume (30 μl) of solutions of various concentrations of unlabelled hapten, estradiol hemisuccinate (or estrone-17-(0-Carboxymethyl)oxime, E1 (Ox)-COOH). This mixture was added to a constant volume (60 μl) of the sepharose-bound antibodies, Vortex-mixed for 1 min. and allowed to incubate at room temperature for 30 min. The Vortex-mixing was repeated at intervals of 10 min. The assay mixture was then centrifuged for 1 min. at 3000 r.p.m. Aliquots (30 μl) were extracted with an Eppendorf pipette and injected into the graphite tube of the AA instrument. The following controls were taken through the same procedure to determine specificity: (a) a suspension of sepharose-bound antibodies without addition of metal-labelled hapten; (b) the mixtures of metal-labelled and non-labelled haptens, without addition of the sepharose-bound antibodies; (c) the mixture of metal-labelled and non-labelled haptens with addition of sepharose-bound γ-globulins of normal rabbit serum.

BSA-Cobalt labelled conjugate: Bovine serum albumin labelled with carboxycobalticenium N-succinimide ester, about 35 haptens per mole
"free" hapten in supernatant (Anti-BSA antiserum; tube 1: conjugate 0.23 μg Co/ml, 100 μl + 100 μl antiserum, 1 hr 37° C., 48 hrs 4° C.): 0.00 μg Co/ml
"free" hapten in supernatant (Anti-BSA antiserum; tube 2: conjugate 0.47 μg Co/ml): 0.06 μg Co/ml
"free" hapten in supernatant (Anti-BSA antiserum; tube 3: conjugate 0.94 μg Co/ml): 0.59 μg Co/ml
free conjugate, equivalent concentration (Anti-BSA antiserum; tube 4: 6.2 μg BSA conjugate/100 μl added): 4.3 μg BSA conjugate/100 μl of original sample
"free" hapten in supernatant (Anti-BSA antiserum; tube 4: conjugate 1.88 μg Co/ml): 1.25 μg Co/ml

C[C@]12CC[C@@H]3c4ccc(O)cc4CC[C@H]3[C@@H]1CCC2=NOCC(=O)O [E1 (OX)--COOH, Extrone oxime-0-carboxymethyl]
Inhibition of E2 (HS)--CONH--CH2 Fc (27.5 × 10^-7 M), cross-reaction ([1]; unlabelled hapten 3.75 × 10^-7 M): 0.5%
Inhibition of E2 (HS)--CONH--CH2 Fc (27.5 × 10^-7 M), cross-reaction ([1]; unlabelled hapten 7.5 × 10^-7 M): 3.0%
Inhibition of E2 (HS)--CONH--CH2 Fc (27.5 × 10^-7 M), cross-reaction ([1]; unlabelled hapten 15.0 × 10^-7 M (E1 column)): 6.5%
Inhibition of E2 (HS)--CONH--CH2 Fc (27.5 × 10^-7 M), cross-reaction ([1]; unlabelled hapten 37.5 × 10^-7 M): 9.5%
Inhibition of E2 (HS)--CONH--CH2 Fc (27.5 × 10^-7 M), cross-reaction ([1]; unlabelled hapten 75.0 × 10^-7 M): 25.5%
Inhibition of E2 (HS)--CONH--CH2 Fc (27.5 × 10^-7 M), cross-reaction ([1]; unlabelled hapten 150.0 × 10^-7 M (E1 column)): 50.5%

C[C@]12CC[C@@H]3c4ccc(O)cc4CC[C@H]3[C@@H]1CC[C@@H]2OC(=O)CCC(=O)O [E2 (HS)--COOH, Estradiol-17β-hemisuccinate]
Inhibition of E2 (HS)--CONH--CH2 Fc (27.5 × 10^-7 M) ([1]; unlabelled hapten 3.6 × 10^-7 M): 8.5%
Inhibition of E2 (HS)--CONH--CH2 Fc (27.5 × 10^-7 M) ([1]; unlabelled hapten 7.2 × 10^-7 M): 17.5%
Inhibition of E2 (HS)--CONH--CH2 Fc (27.5 × 10^-7 M) ([1]; unlabelled hapten 15.0 × 10^-7 M (E2 column)): 21.5%
Inhibition of E2 (HS)--CONH--CH2 Fc (27.5 × 10^-7 M) ([1]; unlabelled hapten 36.0 × 10^-7 M): 43.5%
Inhibition of E2 (HS)--CONH--CH2 Fc (27.5 × 10^-7 M) ([1]; unlabelled hapten 72.0 × 10^-7 M): 48.0%
Inhibition of E2 (HS)--CONH--CH2 Fc (27.5 × 10^-7 M) ([1]; unlabelled hapten 150.0 × 10^-7 M (E2 column)): 56.0%
Inhibition of E2 (HS)--CONH--CH2 Fc (27.5 × 10^-7 M) ([1]; unlabelled hapten 300.0 × 10^-7 M): 63.5%
